Where two headings read alike, the source gives them in different places.
Assays:
Type in all cases: in vivo
[1] = test system: barnyardgrass (Echinochloa crus-galli); assay: Test A pre-/postemergence greenhouse herbicide test, visual injury rating 0-100; details: for pest or weed control at 500 g/ha: 500 g ai/ha
How it was run: (§1)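 Ratings are visual, 0 to 100 relative to untreated plants, taken approximately 10 days post-treatment in the greenhouse. Both preemergence soil and postemergence foliar routes were used with surfactant-containing non-phytotoxic solvent formulations.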

corn (Zea mays) = assay: as above; details: for plant injury at 500 g/ha: 500 g ai/ha
How it was run: as §1

[2] = test system: giant foxtail (Setaria faberii); assay: as above; details: for pest or weed control at 500 g/ha: 500 g ai/ha
How it was run: as §1

[3] = test system: large (Lg) crabgrass (Digitaria sanguinalis); assay: as above; details: for pest or weed control at 500 g/ha: 500 g ai/ha
How it was run: as §1

[4] = test system: morningglory (Ipomoea spp.); assay: as above; details: for pest or weed control at 500 g/ha: 500 g ai/ha
How it was run: as §1

[5] = test system: pigweed (Amaranthus retroflexus); assay: as above; details: for pest or weed control at 500 g/ha: 500 g ai/ha
How it was run: as §1

[6] = test system: velvetleaf (Abutilon theophrasti); assay: as above; details: for pest or weed control at 500 g/ha: 500 g ai/ha
How it was run: as §1

[7] = test system: wheat (Triticum aestivum); assay: as above; details: for plant injury at 500 g/ha: 500 g ai/ha
How it was run: as §1

[8] = test system: Italian ryegrass (Lolium multiflorum); assay: Test C pre-/postemergence greenhouse test, plant response rating 0-100; details: Lolium multiflorum; for pest or weed control at 62 g/ha: 62 g ai/ha; for pest or weed control at 125 g/ha: 125 g ai/ha; for pest or weed control at 250 g/ha: 250 g ai/ha; for pest or weed control at 500 g/ha: 500 g ai/ha
How it was run: (§2)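 Plants were scored visually against controls 13–15 days after treatment on a 0–100 scale, 100 meaning complete control. Test chemicals, formulated in surfactant-containing non-phytotoxic solvent, went preemergence onto seeds in loam–sand blend or postemergence onto 1- to 4-leaf plants (2–18 cm) grown in peat-based mix.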

[9] = test system: galium (catchweed bedstraw, Galium aparine); assay: as above; details: Galium; for pest or weed control at 62 g/ha: 62 g ai/ha; for pest or weed control at 125 g/ha: 125 g ai/ha; for pest or weed control at 250 g/ha: 250 g ai/ha; for pest or weed control at 500 g/ha: 500 g ai/ha
How it was run: as §2

[10] = test system: morningglory (Ipomoea coccinea); assay: as above; details: Ipomoea; for pest or weed control at 62 g/ha: 62 g ai/ha; for pest or weed control at 125 g/ha: 125 g ai/ha; for pest or weed control at 250 g/ha: 250 g ai/ha; for pest or weed control at 500 g/ha: 500 g ai/ha
How it was run: as §2

[11] = test system: ragweed (common ragweed, Ambrosia elatior); assay: as above; details: Ambrosia artemisiifolia; for pest or weed control at 62 g/ha: 62 g ai/ha; for pest or weed control at 125 g/ha: 125 g ai/ha; for pest or weed control at 250 g/ha: 250 g ai/ha; for pest or weed control at 500 g/ha: 500 g ai/ha
How it was run: as §2

[12] = test system: velvetleaf (Abutilon theophrasti); assay: as above; details: Abutilon theophrasti; for pest or weed control at 62 g/ha: 62 g ai/ha; for pest or weed control at 125 g/ha: 125 g ai/ha; for pest or weed control at 250 g/ha: 250 g ai/ha; for pest or weed control at 500 g/ha: 500 g ai/ha
How it was run: as §2

[13] = post-emergence, Postemergence, read-out: Plant response rating (0 to 100), Ryegrass, Italian
[14] = post-emergence, Postemergence, scale 0 to 100
[15] = pre-emergence, Preemergence, read-out: Plant response rating, Ryegrass, Italian
[16] = post-emergence, Postemergence, read-out: Plant response rating (0 to 100), Galium
[17] = pre-emergence, Preemergence, read-out: Plant response rating, Galium
[18] = post-emergence, Postemergence, read-out: Plant response rating (0 to 100), Morningglory
[19] = pre-emergence, Preemergence, read-out: Plant response rating, Morningglory
[20] = post-emergence, Postemergence, read-out: Plant response rating (0 to 100), Ragweed
[21] = pre-emergence, Preemergence, read-out: Plant response rating, Ragweed
[22] = post-emergence, Postemergence, read-out: Plant response rating (0 to 100), Velvetleaf
[23] = pre-emergence, Preemergence, read-out: Plant response rating, Velvetleaf

COCC(=O)n1cc(C(=O)c2ccccc2)c(-c2cc(Cl)cc(Cl)c2)n1 [Compound 16, 1-[4-benzoyl-3-(3,5-dichlorophenyl)-1H-pyrazol-1-yl]-2-methoxyethanone]
80%: pest or weed control at 125 g/ha ([5]; Amaranthus retroflexus, post-emergence, 240 h, Postemergence, 125 g ai/ha, read-out: Plant response rating (0 to 100 scale), Pigweed) | pest or weed control at 125 g/ha ([6]; Abutilon theophrasti, post-emergence, 240 h, Postemergence, 125 g ai/ha, read-out: Plant response rating (0 to 100 scale), Velvetleaf) | pest or weed control at 500 g/ha ([6]; Abutilon theophrasti, pre-emergence, 240 h, Preemergence, read-out: Plant response rating (0 to 100 scale), Velvetleaf)
90%: pest or weed control at 500 g/ha ([6]; Abutilon theophrasti, post-emergence, 240 h, Postemergence, read-out: Plant response rating (0 to 100 scale), Velvetleaf) | pest or weed control at 125 g/ha [12, 22] | pest or weed control at 250 g/ha [12, 14] | pest or weed control at 500 g/ha [12, 14]
20%: pest or weed control at 125 g/ha [9, 16] | pest or weed control at 250 g/ha [9, 14]
0: Barnyardgrass plant response rating (0 = no effect, 100 = complete control) ([1]; Preemergence, 125 g ai/ha) | Corn plant response rating (0 = no effect, 100 = complete control) (corn (Zea mays); Preemergence, 125 g ai/ha) | Foxtail, Giant plant response rating (0 = no effect, 100 = complete control) ([2]; Preemergence, 125 g ai/ha) | Crabgrass, Large plant response rating (0 = no effect, 100 = complete control) ([3]; Preemergence, 125 g ai/ha) | Morningglory plant response rating (0 = no effect, 100 = complete control) ([4]; Preemergence, 125 g ai/ha) | Wheat plant response rating (0 = no effect, 100 = complete control) ([7]; Preemergence, 125 g ai/ha)
50%: pest or weed control at 500 g/ha [9, 14]
85%: pest or weed control at 125 g/ha [11, 20] | pest or weed control at 250 g/ha [11, 14] | pest or weed control at 125 g/ha [11, 21] | pest or weed control at 250 g/ha ([11]; pre-emergence, Preemergence) | pest or weed control at 62 g/ha [12, 22]
0%: pest or weed control at 125 g/ha ([1]; Echinochloa crus-galli, post-emergence, 240 h, Postemergence, 125 g ai/ha, read-out: Plant response rating (0 to 100 scale), Barnyardgrass) | pest or weed control at 500 g/ha ([1]; Echinochloa crus-galli, post-emergence, 240 h, Postemergence, read-out: Plant response rating (0 to 100 scale), Barnyardgrass) | pest or weed control at 500 g/ha ([1]; Echinochloa crus-galli, pre-emergence, 240 h, Preemergence, read-out: Plant response rating (0 to 100 scale), Barnyardgrass) | plant injury at 125 g/ha (corn (Zea mays); Zea mays, post-emergence, 240 h, Postemergence, 125 g ai/ha, read-out: Plant response rating (0 to 100 scale), Corn) | plant injury at 500 g/ha (corn (Zea mays); Zea mays, post-emergence, 240 h, Postemergence, read-out: Plant response rating (0 to 100 scale), Corn) | plant injury at 500 g/ha (corn (Zea mays); Zea mays, pre-emergence, 240 h, Preemergence, read-out: Plant response rating (0 to 100 scale), Corn) | pest or weed control at 125 g/ha ([2]; Setaria faberi, post-emergence, 240 h, Postemergence, 125 g ai/ha, read-out: Plant response rating (0 to 100 scale), Foxtail, Giant) | pest or weed control at 500 g/ha ([2]; Setaria faberi, post-emergence, 240 h, Postemergence, read-out: Plant response rating (0 to 100 scale), Foxtail, Giant) | pest or weed control at 500 g/ha ([2]; Setaria faberi, pre-emergence, 240 h, Preemergence, read-out: Plant response rating (0 to 100 scale), Foxtail, Giant) | pest or weed control at 125 g/ha ([3]; Digitaria sanguinalis, post-emergence, 240 h, Postemergence, 125 g ai/ha, read-out: Plant response rating (0 to 100 scale), Crabgrass, Large) | pest or weed control at 500 g/ha ([3]; Digitaria sanguinalis, post-emergence, 240 h, Postemergence, read-out: Plant response rating (0 to 100 scale), Crabgrass, Large) | pest or weed control at 500 g/ha ([3]; Digitaria sanguinalis, pre-emergence, 240 h, Preemergence, read-out: Plant response rating (0 to 100 scale), Crabgrass, Large) | pest or weed control at 125 g/ha ([4]; Ipomoea, post-emergence, 240 h, Postemergence, 125 g ai/ha, read-out: Plant response rating (0 to 100 scale), Morningglory) | pest or weed control at 500 g/ha ([4]; Ipomoea, post-emergence, 240 h, Postemergence, read-out: Plant response rating (0 to 100 scale), Morningglory) | pest or weed control at 500 g/ha ([4]; Ipomoea, pre-emergence, 240 h, Preemergence, read-out: Plant response rating (0 to 100 scale), Morningglory) | plant injury at 125 g/ha ([7]; Triticum aestivum, post-emergence, 240 h, Postemergence, 125 g ai/ha, read-out: Plant response rating (0 to 100 scale), Wheat) | plant injury at 500 g/ha ([7]; Triticum aestivum, post-emergence, 240 h, Postemergence, read-out: Plant response rating (0 to 100 scale), Wheat) | plant injury at 500 g/ha ([7]; Triticum aestivum, pre-emergence, 240 h, Preemergence, read-out: Plant response rating (0 to 100 scale), Wheat) | pest or weed control at 62 g/ha [8, 13] | pest or weed control at 125 g/ha [8, 13] | pest or weed control at 250 g/ha [8, 14] | pest or weed control at 500 g/ha [8, 14] | pest or weed control at 62 g/ha [8, 15] | pest or weed control at 125 g/ha [8, 15] | pest or weed control at 250 g/ha ([8]; pre-emergence, Preemergence) | pest or weed control at 500 g/ha ([8]; pre-emergence, Preemergence) | pest or weed control at 62 g/ha [9, 16] | pest or weed control at 62 g/ha [9, 17] | pest or weed control at 125 g/ha [9, 17] | pest or weed control at 250 g/ha ([9]; pre-emergence, Preemergence) | pest or weed control at 500 g/ha ([9]; pre-emergence, Preemergence) | pest or weed control at 62 g/ha [10, 18] | pest or weed control at 125 g/ha [10, 18] | pest or weed control at 250 g/ha [10, 14] | pest or weed control at 500 g/ha [10, 14] | pest or weed control at 62 g/ha [10, 19] | pest or weed control at 125 g/ha [10, 19] | pest or weed control at 250 g/ha ([10]; pre-emergence, Preemergence) | pest or weed control at 500 g/ha ([10]; pre-emergence, Preemergence)
65%: pest or weed control at 62 g/ha [12, 23]
55%: pest or weed control at 62 g/ha [11, 21]
20: Velvetleaf plant response rating (0 = no effect, 100 = complete control) ([6]; Preemergence, 125 g ai/ha)
60%: pest or weed control at 62 g/ha [11, 20]
100%: pest or weed control at 500 g/ha ([5]; Amaranthus retroflexus, post-emergence, 240 h, Postemergence, read-out: Plant response rating (0 to 100 scale), Pigweed) | pest or weed control at 500 g/ha ([5]; Amaranthus retroflexus, pre-emergence, 240 h, Preemergence, read-out: Plant response rating (0 to 100 scale), Pigweed) | pest or weed control at 125 g/ha [12, 23] | pest or weed control at 250 g/ha ([12]; pre-emergence, Preemergence) | pest or weed control at 500 g/ha ([12]; pre-emergence, Preemergence)
60: Pigweed plant response rating (0 = no effect, 100 = complete control) ([5]; Preemergence, 125 g ai/ha)
95%: pest or weed control at 500 g/ha [11, 14] | pest or weed control at 500 g/ha ([11]; pre-emergence, Preemergence)
